What was measured:
Format in all cases: in vivo
[1] = system: ducksalad (Heteranthera limosa); test: Test B flooded paddy test, plant response rating; settings: 250 g ai/ha; Flood; scale of 0 to 100 where 0 is no effect and 100 is complete control; 13 to 15 days
In short: (§1)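 Pots were flooded to 3 cm above the soil surface at treatment, compound applied directly to the paddy water, and that depth held throughout. Plants were kept in a greenhouse for 13 to 15 days, then visually rated against untreated controls.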

[2] = system: barnyardgrass (Echinochloa crus-galli); test: Test B flooded paddy test, plant response rating; settings: 250 g ai/ha; Flood; scale of 0 to 100 where 0 is no effect and 100 is complete control; 13 to 15 days
In short: as §1

[3] = system: sedge, umbrella (small-flower umbrella sedge, Cyperus difformis); test: Test B flooded paddy test, plant response rating; settings: 250 g ai/ha; Flood; scale of 0 to 100 where 0 is no effect and 100 is complete control; 13 to 15 days
In short: as §1

[4] = system: rice (Oryza sativa); test: Test B flooded paddy test, plant response rating; settings: 250 g ai/ha; Flood; scale of 0 to 100 where 0 is no effect and 100 is complete control; 13 to 15 days
In short: as §1

[5] = system: kochia (Kochia scoparia); test: Test A postemergence, visual injury rating; settings: 0 is no effect, 100 is complete control; for Kochia plant response rating: 125 g ai/ha, 0 to 100 scale, approximately 10 days; for Kochia plant response rating (0 to 100 scale): 500 g ai/ha
In short: (§2)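 Visual 0–100 rating (100 = complete control) taken about 10 d post-treatment relative to untreated checks. Preemergence: directed soil spray on sown loam/sand pots. Postemergence: seedlings 2–10 cm, 1–2 leaf. Non-phytotoxic solvent formulation with surfactant.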

[6] = system: pigweed (Amaranthus retroflexus); test: Test A postemergence, visual injury rating; settings: 0 is no effect, 100 is complete control; for Pigweed plant response rating: 125 g ai/ha, 0 to 100 scale, approximately 10 days; for Pigweed plant response rating (0 to 100 scale): 500 g ai/ha
In short: as §2

[7] = system: giant foxtail (Setaria faberii); test: Test A postemergence, visual injury rating; settings: 0 is no effect, 100 is complete control; for Foxtail, Giant plant response rating: 125 g ai/ha, 0 to 100 scale, approximately 10 days; for Foxtail, Giant plant response rating (0 to 100 scale): 500 g ai/ha
In short: as §2

[8] = system: wheat (Triticum aestivum); test: Test A postemergence, visual injury rating; settings: 0 is no effect, 100 is complete control; for Wheat plant response rating: 125 g ai/ha, 0 to 100 scale, approximately 10 days; for Wheat plant response rating (0 to 100 scale): 500 g ai/ha
In short: as §2

[9] = system: corn (Zea mays); test: Test A postemergence, visual injury rating; settings: 0 is no effect, 100 is complete control; for Corn plant response rating: 125 g ai/ha, 0 to 100 scale, approximately 10 days; for Corn plant response rating (0 to 100 scale): 500 g ai/ha
In short: as §2

[10] = system: barnyardgrass (Echinochloa crus-galli); test: Test A postemergence, visual injury rating; settings: 0 is no effect, 100 is complete control; for Barnyardgrass plant response rating: 125 g ai/ha, 0 to 100 scale, approximately 10 days; for Barnyardgrass plant response rating (0 to 100 scale): 500 g ai/ha
In short: as §2

[11] = system: blackgrass (Alopecurus myosuroides); test: Test A postemergence, visual injury rating; settings: 0 is no effect, 100 is complete control; for Blackgrass plant response rating: 125 g ai/ha, 0 to 100 scale, approximately 10 days; for Blackgrass plant response rating (0 to 100 scale): 500 g ai/ha
In short: as §2

[12] = system: galium (catchweed bedstraw, Galium aparine); test: Test A postemergence, visual injury rating; settings: 0 is no effect, 100 is complete control; for Galium plant response rating: 125 g ai/ha, 0 to 100 scale, approximately 10 days; for Galium plant response rating (0 to 100 scale): 500 g ai/ha
In short: as §2

[13] = system: Italian ryegrass (Lolium multiflorum); test: Test A postemergence, visual injury rating; settings: 0 is no effect, 100 is complete control; for Ryegrass, Italian plant response rating: 125 g ai/ha, 0 to 100 scale, approximately 10 days; for Ryegrass, Italian plant response rating (0 to 100 scale): 500 g ai/ha
In short: as §2

[14] = system: ragweed (common ragweed, Ambrosia elatior); test: Test A postemergence, visual injury rating; settings: 0 is no effect, 100 is complete control; for Ragweed plant response rating: 125 g ai/ha, 0 to 100 scale, approximately 10 days; for Ragweed plant response rating (0 to 100 scale): 500 g ai/ha
In short: as §2

[15] = system: kochia (Kochia scoparia); test: Test A preemergence, visual injury rating; settings: 0 to 100 scale (0 no effect, 100 complete control)
In short: as §2

[16] = system: pigweed (Amaranthus retroflexus); test: Test A preemergence, visual injury rating; settings: 0 to 100 scale (0 no effect, 100 complete control)
In short: as §2

[17] = system: giant foxtail (Setaria faberii); test: Test A preemergence, visual injury rating; settings: 0 to 100 scale (0 no effect, 100 complete control)
In short: as §2

[18] = system: barnyardgrass (Echinochloa crus-galli); test: Test A preemergence, visual injury rating; settings: 0 to 100 scale (0 no effect, 100 complete control)
In short: as §2

[19] = system: Italian ryegrass (Lolium multiflorum); test: Test A preemergence, visual injury rating; settings: 0 to 100 scale (0 no effect, 100 complete control)
In short: as §2

[20] = system: ragweed (common ragweed, Ambrosia elatior); test: Test A preemergence, visual injury rating; settings: 0 to 100 scale (0 no effect, 100 complete control)
In short: as §2

| SMILES | Plant response rating, Ducksalad [1] | Plant response rating, Barnyardgrass [2] | Plant response rating, Sedge, Umbrella [3] | Plant response rating, Rice [4] | Kochia plant response rating [5] | Kochia plant response rating (0 to 100 scale) [5] | Pigweed plant response rating [6] | Pigweed plant response rating (0 to 100 scale) [6] | Foxtail, Giant plant response rating [7] | Foxtail, Giant plant response rating (0 to 100 scale) [7] | Wheat plant response rating [8] | Wheat plant response rating (0 to 100 scale) [8] | Corn plant response rating [9] | Corn plant response rating (0 to 100 scale) [9] | Barnyardgrass plant response rating [10] | Barnyardgrass plant response rating (0 to 100 scale) [10] | Blackgrass plant response rating [11] | Blackgrass plant response rating (0 to 100 scale) [11] | Galium plant response rating [12] | Galium plant response rating (0 to 100 scale) [12] | other results |
| --- | --- | --- | --- | --- | --- | --- | --- | --- | --- | --- | --- | --- | --- | --- | --- | --- | --- | --- | --- | --- | --- |
| CCSC(=O)c1c(Br)cccc1Oc1ncc(Cl)cn1 [Compound 83] | 80 | 0 | 80 | 0 | 30 | 90 | 30 | 70 | 0 | 80 | 0 | 0 | 20 | 30 | 0 | 90 | 0 | 40 | 30 | 20 | Ryegrass, Italian plant response rating [13]: 0; Ryegrass, Italian plant response rating (0 to 100 scale) [13]: 0; Ragweed plant response rating [14]: 0; Ragweed plant response rating (0 to 100 scale) [14]: 0; Kochia plant response rating ([15]; 125 g ai/ha): 0; Kochia plant response rating ([15]; 500 g ai/ha): 0; Pigweed plant response rating ([16]; 125 g ai/ha): 30; Pigweed plant response rating ([16]; 500 g ai/ha): 90; Foxtail, Giant plant response rating ([17]; 125 g ai/ha): 90; Foxtail, Giant plant response rating ([17]; 500 g ai/ha): 100; Barnyardgrass plant response rating ([18]; 125 g ai/ha): 30; Barnyardgrass plant response rating ([18]; 500 g ai/ha): 90; Ryegrass, Italian plant response rating ([19]; 125 g ai/ha): 0; Ryegrass, Italian plant response rating ([19]; 500 g ai/ha): 0; Ragweed plant response rating ([20]; 125 g ai/ha): 0; Ragweed plant response rating ([20]; 500 g ai/ha): 0 |
| CCC(C)OC(=O)c1c(Br)cccc1Oc1ncc(Cl)cn1 (stereo not drawn) [Compound 84] | 0 | 0 | 0 | 0 | 30 | 70 | 30 | 70 | 0 | 60 | 0 | 20 | 10 | 40 | 0 | 40 | 0 | 0 | 30 | 40 | Ryegrass, Italian plant response rating [13]: 0; Ryegrass, Italian plant response rating (0 to 100 scale) [13]: 0; Ragweed plant response rating [14]: 0; Ragweed plant response rating (0 to 100 scale) [14]: 0; Kochia plant response rating ([15]; 125 g ai/ha): 0; Kochia plant response rating ([15]; 500 g ai/ha): 0; Pigweed plant response rating ([16]; 125 g ai/ha): 0; Pigweed plant response rating ([16]; 500 g ai/ha): 100; Foxtail, Giant plant response rating ([17]; 125 g ai/ha): 0; Foxtail, Giant plant response rating ([17]; 500 g ai/ha): 100; Barnyardgrass plant response rating ([18]; 125 g ai/ha): 0; Barnyardgrass plant response rating ([18]; 500 g ai/ha): 90; Ryegrass, Italian plant response rating ([19]; 125 g ai/ha): 0; Ryegrass, Italian plant response rating ([19]; 500 g ai/ha): 0; Ragweed plant response rating ([20]; 125 g ai/ha): 0; Ragweed plant response rating ([20]; 500 g ai/ha): 0 |

Reference: patent US11053204B2, “Pyrimidinyloxy benzene derivatives as herbicides” (FMC Corporation, priority 2015, dated 2021)
